The values below come from ChEMBL document CHEMBL1156214, “Identification of GNE-477, a potent and efficacious dual PI3K/mTOR inhibitor” (Bioorg Med Chem Lett, 2010).

Data set [1] in a line: Hepatic clearance in rat liver microsomes. In kind it is ADME, Microsome.
The nature of data set [2]: Clearance in rat at 1 mg/kg, iv or 5 mg/kg, po. The format is ADME, organism-based. Particulars: in vivo.
Data set [3] is described as follows: Antiproliferative activity against human MCF7.1 cells after 3 days by celltiter-glo luminescence assay. In kind it is functional, cell-based. Particulars: MCF7.1, 72 h.
Data set [4] has as its target Phosphatidylinositol 4,5-bisphosphate 3-kinase catalytic subunit alpha isoform (Homo sapiens, UniProt P42336).
Description: Inhibition of PI3Kalpha assessed as reduction in 3,4,5-inositoltriphosphate accumulation after 30 mins by fluorescence polarization assay
Data set [5] concerns the target Serine/threonine-protein kinase mTOR (Homo sapiens, UniProt P42345). In words: Inhibition of human recombinant mTOR assessed as reduction in GFP-4EBP1 phosphorylation after 30 mins by FRET assay.
Data set [6] concerns Rattus norvegicus. Kind of data set: Unbound clearance in rat at 1 mg/kg, iv or 5 mg/kg, po. The format is ADME, organism-based. Particulars: in vivo.
Data set [7] can be described thus: Plasma protein binding in rat at 1 mg/kg, iv or 5 mg/kg, po. The format is ADME, organism-based. Particulars: read-out: PPB (converted).
The nature of data set [8]: Thermodynamic solubility at pH 6.5. In kind it is physicochemical. Particulars: buffer.
The nature of data set [9]: Oral bioavailability in rat at 5 mg/kg. In kind it is ADME, organism-based. The following applies: in vivo.
A short description of data set [10]: Oral bioavailability in nu/nu mouse at 5 mg/kg. The format is ADME, organism-based. The following applies: in vivo.
Data set [11] is described as follows: Clearance in nu/nu mouse at 1 mg/kg, iv or 5 mg/kg, po. The format is ADME, organism-based. Particulars: in vivo.
A short description of data set [12]: Oral bioavailability in Beagle dog at 2 mg/kg. The format is ADME, organism-based, Canis lupus familiaris. The following applies: in vivo.
Data set [13] in a line: Clearance in Beagle dog at 1 mg/kg, iv or 2 mg/kg, po. The format is ADME, organism-based, Canis lupus familiaris. Particulars: in vivo.
Data set [14] has as its system PC-3. Kind of data set: Antitumor activity against human PC3 cells xenografted in nu/nu mouse assessed as tumor incidence at 10 mg/kg, po QD measured after 14 days. In kind it is functional, organism-based. Further details: dose 10 mg/kg.
In data set [15] the test system is PC-3. Kind of data set: Antiproliferative activity against human PC3 cells after 3 days by celltiter-glo luminescence assay. The format is functional, cell-based. The following applies: PC-3, 72 h.
The test system of data set [16] is Mus musculus. Kind of data set: Toxicity in nu/nu mouse assessed as body weight loss at 1 to 20 mg/kg, po QD measured after 14 days. The format is organism-based. Further details: dose 1-20 mg/kg, route oral. Particulars: in vivo, 336 h.
Data set [17] deals with PC-3. In words: Antitumor activity against human PC3 cells xenografted in nu/nu mouse assessed as tumor incidence at 1 mg/kg, po QD measured after 14 days. The format is functional, organism-based. Further details: dose 1 mg/kg.
In data set [18] the test system is PC-3. Kind of data set: Antitumor activity against human PC3 cells xenografted in nu/nu mouse assessed as tumor growth inhibition at 1 mg/kg, po QD measured after 14 days relative to control. In kind it is functional. Further details: scale not given: the % may be the effect or the level left.
Data set [19] has as its system PC-3. Kind of data set: Antitumor activity against human PC3 cells xenografted in nu/nu mouse assessed as tumor growth inhibition at 10 mg/kg, po QD measured after 14 days relative to control. In kind it is functional. Further details: scale not given: the % may be the effect or the level left.
Data set [20] has as its system PC-3. In words: Antitumor activity against human PC3 cells xenografted in nu/nu mouse assessed as tumor growth inhibition at 5 mg/kg, po QD measured after 14 days relative to control. The format is functional. Further details: scale not given: the % may be the effect or the level left.
Data set [21] has as its system PC-3. Kind of data set: Antitumor activity against human PC3 cells xenografted in nu/nu mouse assessed as tumor growth inhibition at 20 mg/kg, po QD measured after 14 days relative to control. The format is functional. Further details: scale not given: the % may be the effect or the level left.

Converted amounts (≈) assume the structure as drawn. The source made the active and inactive calls. The calls are words filed in the database; no cut-off is given here.

Phosphatidylinositol 4,5-bisphosphate 3-kinase catalytic subunit alpha isoform, sequence (P42336 whole entry, canonical isoform): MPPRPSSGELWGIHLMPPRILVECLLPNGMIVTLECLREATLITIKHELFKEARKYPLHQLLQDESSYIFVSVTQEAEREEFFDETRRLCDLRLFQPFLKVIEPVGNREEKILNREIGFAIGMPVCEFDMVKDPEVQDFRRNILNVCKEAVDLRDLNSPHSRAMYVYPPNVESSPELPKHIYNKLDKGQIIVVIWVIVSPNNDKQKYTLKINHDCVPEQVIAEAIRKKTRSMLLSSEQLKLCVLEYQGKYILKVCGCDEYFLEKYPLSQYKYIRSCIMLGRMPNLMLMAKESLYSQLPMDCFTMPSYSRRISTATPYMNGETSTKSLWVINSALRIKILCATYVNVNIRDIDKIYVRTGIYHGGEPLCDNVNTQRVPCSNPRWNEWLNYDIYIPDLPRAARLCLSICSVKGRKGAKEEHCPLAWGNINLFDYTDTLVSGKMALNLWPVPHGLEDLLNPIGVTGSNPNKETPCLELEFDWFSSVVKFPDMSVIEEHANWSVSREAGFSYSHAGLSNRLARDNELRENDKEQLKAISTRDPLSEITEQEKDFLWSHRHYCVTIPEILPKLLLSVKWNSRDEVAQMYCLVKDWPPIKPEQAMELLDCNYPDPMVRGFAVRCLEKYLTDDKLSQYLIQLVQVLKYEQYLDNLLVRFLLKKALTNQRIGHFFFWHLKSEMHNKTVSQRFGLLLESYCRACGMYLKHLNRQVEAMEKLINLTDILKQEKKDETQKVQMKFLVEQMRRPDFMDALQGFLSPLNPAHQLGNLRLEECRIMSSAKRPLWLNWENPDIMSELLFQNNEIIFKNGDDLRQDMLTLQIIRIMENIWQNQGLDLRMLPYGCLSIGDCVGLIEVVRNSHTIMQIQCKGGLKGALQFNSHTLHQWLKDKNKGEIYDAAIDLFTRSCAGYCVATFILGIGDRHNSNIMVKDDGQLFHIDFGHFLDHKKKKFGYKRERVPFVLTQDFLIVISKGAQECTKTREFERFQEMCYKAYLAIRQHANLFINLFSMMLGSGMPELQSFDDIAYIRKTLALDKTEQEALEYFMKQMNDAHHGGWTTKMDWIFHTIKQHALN

In the case of `Cc1c(-c2cccc(C(=O)N3CCN(C)CC3)c2)sc2c(N3CCOCC3)nc(-c3cnc(N)nc3)nc12`, the CLhep predicted in [1] was 38 mL/min/kg. Moreover, the clearance in [2] stood at 15 mL/min/kg. The compound further returned an EC50 in data set [3] of 65 nM. Half-maximal inhibition in [4] (IC50) required 2 nM. Further, in [5], the Ki is 4 nM.
For `CS(=O)(=O)c1cccc(-c2cc3nc(-c4cnc(N)nc4)nc(N4CCOCC4)c3s2)c1`, in [1], the CLhep predicted was 7 mL/min/kg. This compound also came in with a clearance in [2] of 56 mL/min/kg. The compound also yielded an Unbound clearance in [6] of 800 mL/min/kg. Further, the EC50 in [3] was determined as 40 nM. Also, in [7], the fraction unbound was 0.07. The IC50 in data set [4] was under 1 nM. In data set [8], this compound showed a thermodynamic solubility of 1 µg/mL (≈ 2.13 µM). In addition, in [5], the Ki came to 5 nM. The bioavailability in data set [9] amounted to 3%.
On to `CS(=O)(=O)N1CCN(Cc2cc3nc(-c4cnc(N)nc4)nc(N4CCOCC4)c3s2)CC1`, for which, in data set [1], the CLhep predicted was 16 mL/min/kg. Also, in data set [6], the Unbound clearance was 50 mL/min/kg. Further, in data set [3], the EC50 was determined as 130 nM. The bioavailability is 81% in data set [10] and 35% in [12]. Moreover, the fraction unbound in [7] was 0.48. The clearance in data set [11] was found to be 49 mL/min/kg. Further, the solubility (thermodynamic) in data set [8] was found to be 62 µg/mL (≈ 126 µM). In addition, in data set [5], the Ki came out at 29 nM.
Consider `CS(=O)(=O)N1CCN(Cc2cc3nc(-c4cccc5[nH]ncc45)nc(N4CCOCC4)c3s2)CC1` [PICTILISIB], for which, in data set [3], the midpoint of the response, the EC50, lay at 720 nM.
For the compound `CC(=O)N(C)Cc1sc2c(N3CCOCC3)nc(-c3cnc(N)nc3)nc2c1C`, the CLhep predicted in data set [1] is 20 mL/min/kg. Moreover, the clearance in data set [2] was found to be 21 mL/min/kg. The Unbound clearance in data set [6] was determined as 43 mL/min/kg. This compound also displayed an EC50 in data set [3] of 164 nM. Further, the fraction unbound in [7] was 0.49. For the same compound, in data set [4], the midpoint of inhibition, the IC50, lay at 3 nM. The Ki in data set [5] is 30 nM.
In the case of `CC(C)(N)c1cc2nc(-c3cnc(N)nc3)nc(N3CCOCC3)c2s1`, it took 290 nM to reach a half-maximal effect in [3] (EC50). In data set [4], this compound yielded an IC50 of 7 nM. In [8], this compound showed a thermodynamic solubility of 1100 µg/mL (≈ 2960 µM). For the same compound, the Ki in data set [5] came out at 59 nM.
In the same order, the values of `CN(Cc1cc2nc(-c3cnc(N)nc3)nc(N3CCOCC3)c2s1)S(C)(=O)=O` are 170 nM, 1 nM, 15 µg/mL (≈ 34.4 µM) and 10 nM.
`Cc1c(-c2cccc(S(C)(=O)=O)c2)sc2c(N3CCOCC3)nc(-c3cnc(N)nc3)nc12`: the CLhep predicted in data set [1] was 12 mL/min/kg. The compound further registered a clearance in data set [2] of 13 mL/min/kg. The Unbound clearance in [6] worked out at 433 mL/min/kg. The compound also came in with an EC50 in [3] of 68 nM. In addition, the fraction unbound in data set [7] was 0.03. The IC50 in [4] is under 1 nM. In data set [8], this compound displayed a solubility (thermodynamic) of 3 µg/mL (≈ 6.22 µM). Further, in data set [5], the Ki came out at 4 nM. The compound further yielded a bioavailability in data set [9] of 4%.
As to `CN1CCN(C(=O)c2cccc(-c3cc4nc(-c5cnc(N)nc5)nc(N5CCOCC5)c4s3)c2)CC1`, the CLhep predicted in data set [1] is 20 mL/min/kg. This compound registered a clearance in data set [2] of 52 mL/min/kg. The EC50 in [3] is 78 nM. In [4], it took 1 nM to reach half-maximal inhibition (IC50). The Ki in data set [5] was 10 nM.
As to `Cc1c(CN2CCN(S(C)(=O)=O)CC2)sc2c(N3CCOCC3)nc(-c3cnc(N)nc3)nc12`, the clearance in data set [13] came out at 5 mL/min/kg; in data set [2], 13 mL/min/kg; in data set [11], 15 mL/min/kg. Moreover, the result in data set [14] and in data set [17] was inactive. Also, the CLhep predicted in data set [1] was 15 mL/min/kg. Moreover, in [6], the Unbound clearance was determined as 52 mL/min/kg. Further, the values for the EC50 in data set [15] and in data set [3] were 174 nM and 143 nM, respectively. Further, the results for the bioavailability in data set [10], in data set [12] and in data set [9] were 98%, 90% and 52%, respectively. Besides, the Activity was under 10% in [16]; 33% in data set [18]; 60% in data set [19]; 43% in data set [20]; 86% in data set [21]. Moreover, the fraction unbound in data set [7] is 0.25. In data set [5], the Ki came out at 21 nM.
For the compound `CC(=O)N(C)Cc1cc2nc(-c3cnc(N)nc3)nc(N3CCOCC3)c2s1`, the CLhep predicted in data set [1] was 2 mL/min/kg. In addition, the clearance in data set [2] worked out at 50 mL/min/kg. This compound came in with an Unbound clearance in data set [6] of 94 mL/min/kg. The same compound gave an EC50 in data set [3] of 190 nM. The fraction unbound in data set [7] is 0.53. Also, half-maximal inhibition in data set [4] (IC50) required 5 nM. The same compound registered a solubility (thermodynamic) in data set [8] of 770 µg/mL (≈ 1930 µM). For the same compound, the Ki in [5] stood at 50 nM.
As for `Nc1ncc(-c2nc(N3CCOCC3)c3sccc3n2)cn1`, the response in [3] was half-maximal at 430 nM (EC50). Besides, in [4], the IC50 amounted to 5 nM. In data set [8], this compound returned a thermodynamic solubility of 170 µg/mL (≈ 541 µM). In addition, the Ki in [5] came out at 42 nM.
